The values that follow come from patent US8685977B2, “Chemical compounds” (Pfizer Limited, priority 2010, dated 2014).

Molecules are shown by their SMILES. A value given as a limit tells only on which side of the number the result lay.

In the experiment the target is T1, Nav1.7 (or SCN9A) channel (Homo sapiens, UniProt Q15858).
T1 construct: expressed in transfected cells
T1 sequence (Q15858 whole entry): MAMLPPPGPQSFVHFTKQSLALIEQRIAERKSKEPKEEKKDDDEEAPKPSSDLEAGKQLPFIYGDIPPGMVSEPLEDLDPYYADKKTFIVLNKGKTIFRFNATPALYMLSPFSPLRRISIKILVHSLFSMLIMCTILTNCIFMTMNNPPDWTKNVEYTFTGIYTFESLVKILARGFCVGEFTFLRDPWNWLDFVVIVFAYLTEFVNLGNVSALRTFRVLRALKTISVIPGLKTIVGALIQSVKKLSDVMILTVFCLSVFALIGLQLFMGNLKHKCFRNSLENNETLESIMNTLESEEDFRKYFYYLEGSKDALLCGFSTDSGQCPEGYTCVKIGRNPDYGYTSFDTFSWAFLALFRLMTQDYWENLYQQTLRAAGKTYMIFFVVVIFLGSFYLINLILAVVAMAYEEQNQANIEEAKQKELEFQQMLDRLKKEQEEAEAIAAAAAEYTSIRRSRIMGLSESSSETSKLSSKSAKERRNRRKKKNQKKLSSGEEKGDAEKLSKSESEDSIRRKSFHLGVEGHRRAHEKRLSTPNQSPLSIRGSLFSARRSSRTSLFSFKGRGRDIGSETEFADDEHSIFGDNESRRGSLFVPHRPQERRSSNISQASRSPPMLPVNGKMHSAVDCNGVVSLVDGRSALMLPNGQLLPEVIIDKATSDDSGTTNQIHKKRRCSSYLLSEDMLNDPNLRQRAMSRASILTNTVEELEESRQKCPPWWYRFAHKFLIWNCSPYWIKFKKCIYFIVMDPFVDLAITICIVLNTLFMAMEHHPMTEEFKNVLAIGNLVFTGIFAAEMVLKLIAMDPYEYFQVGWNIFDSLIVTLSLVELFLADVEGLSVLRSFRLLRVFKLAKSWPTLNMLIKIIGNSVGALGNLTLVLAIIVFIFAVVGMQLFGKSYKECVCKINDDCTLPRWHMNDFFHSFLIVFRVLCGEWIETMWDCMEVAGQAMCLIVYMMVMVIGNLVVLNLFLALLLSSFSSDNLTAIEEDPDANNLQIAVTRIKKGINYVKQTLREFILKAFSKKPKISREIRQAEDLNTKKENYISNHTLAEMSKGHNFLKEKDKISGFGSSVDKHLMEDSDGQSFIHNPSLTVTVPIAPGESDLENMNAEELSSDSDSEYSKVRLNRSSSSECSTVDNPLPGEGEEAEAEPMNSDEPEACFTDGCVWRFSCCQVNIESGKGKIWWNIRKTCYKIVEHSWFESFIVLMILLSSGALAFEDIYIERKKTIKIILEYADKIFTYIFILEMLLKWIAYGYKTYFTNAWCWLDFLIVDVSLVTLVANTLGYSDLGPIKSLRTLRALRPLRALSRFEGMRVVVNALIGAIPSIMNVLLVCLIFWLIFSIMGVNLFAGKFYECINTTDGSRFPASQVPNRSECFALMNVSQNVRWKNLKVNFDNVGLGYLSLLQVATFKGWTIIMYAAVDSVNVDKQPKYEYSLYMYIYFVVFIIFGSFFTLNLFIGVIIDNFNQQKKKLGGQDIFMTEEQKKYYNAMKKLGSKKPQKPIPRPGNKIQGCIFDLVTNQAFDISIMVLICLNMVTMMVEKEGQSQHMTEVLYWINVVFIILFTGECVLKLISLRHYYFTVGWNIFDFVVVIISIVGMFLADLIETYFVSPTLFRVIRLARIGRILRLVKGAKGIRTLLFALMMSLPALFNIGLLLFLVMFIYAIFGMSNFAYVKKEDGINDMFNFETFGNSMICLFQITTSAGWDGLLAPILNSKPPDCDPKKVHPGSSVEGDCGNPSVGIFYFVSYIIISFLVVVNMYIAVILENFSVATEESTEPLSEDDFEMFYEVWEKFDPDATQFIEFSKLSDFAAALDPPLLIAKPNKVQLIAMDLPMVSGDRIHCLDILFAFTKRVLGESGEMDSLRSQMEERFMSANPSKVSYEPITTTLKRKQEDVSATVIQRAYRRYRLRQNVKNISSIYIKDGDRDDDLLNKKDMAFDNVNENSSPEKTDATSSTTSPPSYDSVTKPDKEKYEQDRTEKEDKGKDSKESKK
In words: Nav1.7 PatchXpress 7000 automated electrophysiology assay (HEK cells stably expressing hSCN9A). The class given is cell-based. The note with it: voltage-clamped at V1/2 of inactivation, read-out: Nav1.7 EIC50. The method, boiled down:
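Automated whole-cell clamp (PatchXpress) of HEK cells stably expressing hSCN9A, at 22-24 °C, in extracellular buffer at pH 7.4. Cells were held at the measured V1/2 of inactivation, then stepped to 0 mV for 20 ms. Single-concentration % inhibition gave EIC50 = concentration × (100 − %inhibition)/%inhibition, excluding <20% or >80%.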
As for `CS(=O)(=O)NC(=O)c1ccc(Oc2ccccc2F)c(Cl)c1` [Example 282, 3-chloro-4-(2-fluorophenoxy)-N-(methylsulfonyl)benzamide], the IC50 was determined as 1.2 µM. With `CS(=O)(=O)NC(=O)c1ccc(Oc2cccc3ccccc23)c(C#N)c1` [Example 283, 3-cyano-N-(methylsulfonyl)-4-(1-naphthyloxy)benzamide] the figure was 8.6 µM.

For the molecule `CS(=O)(=O)NC(=O)c1ccc(Oc2cccc(F)c2)c(C#N)c1` [Example 284, 3-cyano-4-(3-fluorophenoxy)-N-(methylsulfonyl)benzamide], the IC50 came to 8.7 µM. As for `CS(=O)(=O)NC(=O)c1cc(Cl)c(Oc2ccc3ccccc3c2)cc1F` [Example 285, 5-chloro-2-fluoro-N-(methylsulfonyl)-4-(2-naphthyloxy)benzamide], the IC50 amounted to 0.057 µM. Take `CS(=O)(=O)NC(=O)c1cc(Cl)c(Oc2ccc(C#N)cc2)cc1F` [Example 286, 5-chloro-4-(4-cyanophenoxy)-2-fluoro-N-(methylsulfonyl)benzamide]: the IC50 amounted to 3.4 µM. `CS(=O)(=O)NC(=O)c1cc(Cl)c(Oc2cccc3ccccc23)cc1F` [Example 287, 5-chloro-2-fluoro-N-(methylsulfonyl)-4-(1-naphthyloxy)benzamide]: the IC50 came to 2.1 µM. Take `CCOc1ccccc1Oc1cc(F)c(C(=O)NS(C)(=O)=O)cc1Cl` [Example 288, 5-chloro-4-(2-ethoxyphenoxy)-2-fluoro-N-(methylsulfonyl)benzamide]: the IC50 was found to be 2 µM. `COc1cccc(Oc2cc(F)c(C(=O)NS(C)(=O)=O)cc2Cl)c1` [Example 289, 5-chloro-2-fluoro-4-(3-methoxyphenoxy)-N-(methylsulfonyl)benzamide]: the IC50 stood at 1.2 µM.

Regarding `Cc1ccc(Oc2cc(F)c(C(=O)NS(C)(=O)=O)cc2Cl)cc1` [Example 291, 5-chloro-2-fluoro-4-(4-methylphenoxy)-N-(methylsulfonyl)benzamide], the IC50 amounted to 0.42 µM.

As to `CS(=O)(=O)NC(=O)c1cc(Cl)c(Oc2cccc(Cl)c2)cc1F` [Example 292, 5-chloro-4-(3-chlorophenoxy)-2-fluoro-N-(methylsulfonyl)benzamide], the IC50 is 0.62 µM.

Turning to `CS(=O)(=O)NC(=O)c1cc(Cl)c(Oc2ccccc2C#N)cc1F` [Example 293, 5-chloro-4-(2-cyanophenoxy)-2-fluoro-N-(methylsulfonyl)benzamide], the IC50 is more than 3 µM. Regarding `CCOc1ccc(Oc2cc(F)c(C(=O)NS(C)(=O)=O)cc2Cl)cc1` [Example 294, 5-chloro-4-(4-ethoxyphenoxy)-2-fluoro-N-(methylsulfonyl)benzamide], the IC50 turned out to be 0.16 µM.

With `CS(=O)(=O)NC(=O)c1cc(Cl)c(Oc2ccc(Cl)cc2)cc1F` [Example 295, 5-chloro-4-(4-chlorophenoxy)-2-fluoro-N-(methylsulfonyl)benzamide], the IC50 came to 0.097 µM. Take `CS(=O)(=O)NC(=O)c1cc(Cl)c(Oc2ccc(F)cc2)cc1F` [Example 296, 5-chloro-2-fluoro-4-(4-fluorophenoxy)-N-(methylsulfonyl)benzamide]: the IC50 is 0.39 µM.

Regarding `Cc1ccccc1Oc1cc(F)c(C(=O)NS(C)(=O)=O)cc1Cl` [Example 297, 5-chloro-2-fluoro-4-(2-methylphenoxy)-N-(methylsulfonyl)benzamide], the IC50 was found to be 2.3 µM.

Regarding `CCOc1cccc(Oc2cc(F)c(C(=O)NS(C)(=O)=O)cc2Cl)c1` [Example 298, 5-chloro-4-(3-ethoxyphenoxy)-2-fluoro-N-(methylsulfonyl)benzamide], the IC50 came out at 0.2 µM.

Take `Cn1nccc1-c1cc(Cl)ccc1Oc1ccc(C(=O)NS(C)(=O)=O)cc1C#N` [Example 303, 4-[4-chloro-2-(1-methyl-1H-pyrazol-5-yl)phenoxy]-3-cyano-N-(methylsulfonyl)benzamide]: the IC50 was more than 3 µM.

As for `Cc1ccc(Oc2ccc(C(=O)NS(C)(=O)=O)cc2)cc1` [Example 304, 4-(4-methylphenoxy)-N-(methylsulfonyl)benzamide], the IC50 was 8.7 µM.

Turning to `CCS(=O)(=O)NC(=O)c1ccc(Oc2ccc(F)cc2)cc1` [Example 305, N-(ethylsulfonyl)-4-(4-fluorophenoxy)benzamide], the IC50 is 6.4 µM. With `CCS(=O)(=O)NC(=O)c1ccc(Oc2cccc(F)c2)cc1` [Example 306, N-(ethylsulfonyl)-4-(3-fluorophenoxy)benzamide], the IC50 was found to be 25 µM. As to `CCS(=O)(=O)NC(=O)c1ccc(Oc2ccccc2)cc1` [Example 307, N-(ethylsulfonyl)-4-phenoxybenzamide], the IC50 is 9.7 µM. `CCS(=O)(=O)NC(=O)c1ccc(Oc2ccc(C)cc2)cc1` [Example 308, N-(ethylsulfonyl)-4-(4-methylphenoxy)benzamide]: the IC50 is more than 10 µM. With `CS(=O)(=O)NC(=O)c1ccc(Oc2ccc(F)cc2)cc1` [Example 309, 4-(4-fluorophenoxy)-N-(methylsulfonyl)benzamide] the figure was 18 µM. Next, `CS(=O)(=O)NC(=O)c1ccc(Oc2ccc(C#N)c(C(F)(F)F)c2)cc1` [Example 310, 4-[4-cyano-3-(trifluoromethyl)phenoxy]-N-(methylsulfonyl)benzamide]: 3.3 µM; `CS(=O)(=O)NC(=O)c1ccc(Oc2ccc(-n3ccnc3)cc2)cc1` [Example 311, 4-[4-(1H-imidazol-1-yl)phenoxy]-N-(methylsulfonyl)benzamide]: more than 3 µM; `Cn1nc(C(F)(F)F)cc1-c1ccc(Oc2ccc(C(=O)NS(C)(=O)=O)cc2)cc1` [Example 312, N-(methylsulfonyl)-4-{4-[1-methyl-3-(trifluoromethyl)-1H-pyrazol-5-yl]phenoxy}benzamide]: 3.3 µM. Turning to `CS(=O)(=O)NC(=O)c1cc(Cl)c(Oc2ccc(C(F)(F)F)cc2-c2ccnnc2)cc1F` [Example 313, 5-chloro-2-fluoro-N-(methylsulfonyl)-4-[2-pyridazin-4-yl-4-(trifluoromethyl)phenoxy]benzamide], the IC50 amounted to 9.9 µM. `COc1ccc(OC(F)(F)F)cc1Oc1cc(F)c(C(=O)NS(C)(=O)=O)cc1F` [Example 314, 2,5-difluoro-4-[2-methoxy-5-(trifluoromethoxy)phenoxy]-N-(methylsulfonyl)benzamide]: the IC50 was 1.1 µM. Consider `CS(=O)(=O)NC(=O)c1ccc(Cc2ccc(Cl)c(Cl)c2)cc1` [Example 315, 4-(3,4-Dichlorobenzyl)-N-(methylsulfonyl)benzamide], for which the IC50 was determined as 1.5 µM. For `CS(=O)(=O)NC(=O)c1ccc(Cc2cccc(OC(F)(F)F)c2)cc1` [Example 316, N-(Methylsulfonyl-1)-4-[3-(trifluoromethoxy)benzyl]benzamide], the IC50 was 1.6 µM. Turning to `CS(=O)(=O)NC(=O)c1ccc(Sc2ccc(Cl)c(Cl)c2)cc1` [Example 317, 4-[(3,4-Dichlorophenyl)sulfanyl]-N-(methylsulfonyl)benzamide], the IC50 was found to be 3.5 µM. With `CS(=O)(=O)NC(=O)c1ccc(Sc2cccc(OC(F)(F)F)c2)cc1` [Example 318, N-(Methylsulfonyl)-4-{[3-(trifluoromethoxy)phenyl]sulfanyl}benzamide], the IC50 is 5.6 µM. With `COc1cc(Cl)ccc1Cc1cc(F)c(C(=O)NS(C)(=O)=O)cc1F` [Example 319, 4-(4-Chloro-2-methoxybenzyl)-2,5-difluoro-N-(methylsulfonyl)benzamide] the figure was 2.5 µM; with `CS(=O)(=O)NC(=O)c1ccc(Oc2ccc(Cl)c(C(F)(F)F)c2)c(Cl)c1F` [Example 320, 3-chloro-4-(4-chloro-3-(trifluoromethyl)phenoxy)-2-fluoro-N-(methylsulfonyl)benzamide], 1.8 µM; with `CS(=O)(=O)NC(=O)c1ccc(Nc2cccc(C(F)(F)F)c2)cc1` [Example 321, N-(methylsulfonyl)-4-(3-(trifluoromethyl)phenylamino)benzamide], 0.32 µM. For `COc1cc(C(=O)NS(C)(=O)=O)ccc1Cc1ccc(Cl)c(Cl)c1` [Example 322, 4-(3,4-dichlorobenzyl)-3-methoxy-N-(methylsulfonyl)benzamide], the IC50 was more than 3 µM. Next, `CS(=O)(=O)NC(=O)c1ccc(Sc2ccccc2Cl)cc1` [Example 323, 4-(2-chlorophenylthio)-N-(methylsulfonyl)benzamide]: 36 µM; `COc1ccccc1Sc1ccc(C(=O)NS(C)(=O)=O)cc1` [Example 324, 4-(2-methoxyphenylthio)-N-(methylsulfonyl)benzamide]: more than 3 µM.

`COc1cc(Oc2ccc(Cl)c(C(F)(F)F)c2)ccc1C(=O)NS(C)(=O)=O` [Example 326, 4-(4-chloro-3-(trifluoromethyl)phenoxy)-2-methoxy-N-(methylsulfonyl)benzamide]: the IC50 turned out to be 4.1 µM.
